Reference: patent US8101760B2, “Glucocorticoid receptor modulator and methods of use” (Eli Lilly and Company, priority 2007, dated 2012)
Like-named read-outs stand apart in the source and are kept apart here.

What was measured:
[1] = biological target: T1, human glucocorticoid receptor (GR) (Homo sapiens, UniProt P04150); assay: Nuclear hormone receptor functional modulation assay (GRE-luciferase, HEK293), GR; assay type: cell-based
T1 construct: expressed in transfected cells; host or cells: HEK293, transient transfection (Fugene), CMV promoter plasmid
T1 sequence (P04150 1-777): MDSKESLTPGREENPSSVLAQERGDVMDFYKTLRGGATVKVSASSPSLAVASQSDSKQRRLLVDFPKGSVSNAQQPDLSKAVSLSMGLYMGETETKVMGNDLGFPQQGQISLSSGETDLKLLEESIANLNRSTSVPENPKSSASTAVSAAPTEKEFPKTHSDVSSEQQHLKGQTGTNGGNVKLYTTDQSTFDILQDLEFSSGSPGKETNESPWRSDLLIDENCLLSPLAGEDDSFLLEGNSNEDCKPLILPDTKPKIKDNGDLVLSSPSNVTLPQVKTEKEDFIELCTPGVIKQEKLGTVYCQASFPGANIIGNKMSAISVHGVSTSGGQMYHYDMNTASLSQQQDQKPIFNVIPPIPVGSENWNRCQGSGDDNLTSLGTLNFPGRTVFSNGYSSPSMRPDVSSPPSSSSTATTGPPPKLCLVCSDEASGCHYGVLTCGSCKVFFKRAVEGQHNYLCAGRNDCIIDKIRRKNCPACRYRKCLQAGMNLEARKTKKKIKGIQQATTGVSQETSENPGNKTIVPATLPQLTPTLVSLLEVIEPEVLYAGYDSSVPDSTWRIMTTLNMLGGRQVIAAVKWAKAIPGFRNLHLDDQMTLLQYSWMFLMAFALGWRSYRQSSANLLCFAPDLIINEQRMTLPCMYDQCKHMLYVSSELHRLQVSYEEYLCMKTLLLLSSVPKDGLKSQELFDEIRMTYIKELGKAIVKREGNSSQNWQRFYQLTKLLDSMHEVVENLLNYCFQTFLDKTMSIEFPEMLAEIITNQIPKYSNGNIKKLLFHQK
Description: The solvents, reagents, and ligands employed in the functional assay are readily available from commercial sources, or can be prepared by one of ordinary skill in the art.
Human embryonic kidney HEK293 cells are transfected with steroid hormone receptor and reporter gene plasmids using Fugene™ (Roche Diganostics) transfection reagent. Briefly, the reporter plasmid containing two copies of probasin ARE (androgen response element 5′GGTTCTTGGAGTACT3′ (SEQ ID NO:1)) and TK(thymidine kinase) promoter upstream of the luciferase reporter cDNA, is transfected into HEK293 cells with a plasmid constitutively expressing human androgen receptor (AR) using viral CMV(cytomegalovirus) promoter. The reporter plasmid containing two copies of GRE (glucocorticoid response element 5′TGTACAGGATGTTCT′3 (SEQ ID NO:2)) and TK promoter upstream of the luciferase reporter cDNA is transfected with a plasmid constitutively expressing either human glucocorticoid receptor (GR), human mineralocorticoid receptor (MR), or human progesterone receptor (PR) using viral CMV promoter. Cells are transfected in T150 cm flasks in DMEM media with 5% charcoal-stripped Fetal Bovine Serum (FBS). […] In the antagonist mode for the assays, low concentrations of agonist for each respective receptor are added to the media (0.25 nM dexamethasone for GR, 0.3 nM of methyltrienolone for AR, 0.05 nM of promegestone for PR and 0.05 nM aldosterone for MR), and the ability of test compound to antagonize the agonist response is determined. After 24 hours of incubation with test compounds, cells are lysed and luciferase activity is determined using standard techniques.
Data are fitted to a four parameter-fit logistic curve fit to determine EC50 values. […] IC50 values may be determined similarly using antagonist mode assay data. Percent inhibitions may also be determined relative to the response in the presence of agonist alone, as described above.

[2] = test system: carrageenan-induced paw edema; assay: Carrageenan-induced paw edema (CPE) model; assay type: in vivo, rat; settings: rat; for ED50: oral gavage 2 h before carrageenan, 3 h after injection, mean of 5
Description: Carrageenans are a group of polysaccharides which can induce an acute inflammatory response in animals. Cardinal signs of inflammation including edema, hyperalgesia and erythema are developed in the injection site immediately following injection. The CPE model (Winter et al., Proc. Soc. Exp. Biol. Med. 111, 544-547, 1962) is a recognized model of inflammation and can be used to evaluate the antinflammatory effects of glucocorticoid receptor ligands.
To evaluate the anti-inflammatory effects of Compound (I), the Compound (I) is formulated in a vehicle comprising 0.5% carboxymethyl cellulose and 0.25% Tween 80 then administered orally via gavage to male Sprague-Dawley rats (180-200 g) (Harlan Industries, Indianapolis, Ind.). For comparison, prednisolone is administered orally in the same vehicle. Two hours later, 1% carrageenan in 50 μL of 0.9% pyrogen free saline is injected into the subplantar regions of the right hind paw. Rats are euthanized by CO2 at 3 hours after the carrageenan injection. Paws are removed then weighed using a microbalance. Paws are then immediately immersed into liquid nitrogen until frozen. Frozen paws are dissected by making several cuts on the paw surface then centrifuged to extract the exudates. Exudate levels of IL-1β, a cytokine generated during the inflammatory response, is then measured by ELISA (R&D Systems, Inc., Catalog No. RLB00) using standard techniques. Total paw protein is also measured using a protein assay kit (Pierce Biotechnology, Inc., Rockford, Ill., U.S.A., Catalog No. 1856210) and the absolute level of IL-1β is normalized to yield a concentration value of ng IL-1β/mg total protein.

With `CC/C(=C1\c2ccc(Cl)cc2OCc2ncccc21)c1cccc(NS(C)(=O)=O)c1` [Compound (I), (E)-N-{3-[1-(8-Chloro-11H-10-oxa-1-aza-dibenzo[a,d]cyclohepten-5-ylidene)-propyl]-phenyl}-methanesulfonamide] the Emax ([1]; HEK293, partial agonist activity, read-out: maximal efficacy in inducing GR/GRE-mediated gene transcription (transactivation)) was under 50%, the EC50 ([1]; agonist mode, activating transcription, mean of 3) was 1.9 nM and the “GR % Eff.” value ([1]; percent efficacy at 10 μM relative to 100 nM dexamethasone, mean of 3) was 45.7%. For the same molecule, the “inhibition of carrageenan induced paw edema” value ([2]; oral administration, in words) was “dose dependently inhibits”, the “production of interleukin-1-beta (IL-1β)” value ([2]; oral administration, in words) was “inhibits production” and the ED50 ([2]; read-out: ED50, inhibition of carrageenan induced paw weight gain) was about 1.2 mg/kg. The ED50 ([2]; read-out: ED50, reduction of paw exudate levels of IL-1β) was about 0.31 mg/kg.
